Experimental data: paper PMC4756849, “A novel high-throughput activity assay for the Trypanosoma brucei editosome enzyme REL1 and other RNA ligases” (Nucleic Acids Research, 2015)
Structures can show the parent of a compound that is named as a salt. Where two headings read alike, the source gives them in different places.

Experiments:
[1] = biological target: T1, Trypanosoma brucei REL1 (Trypanosoma brucei brucei, UniProt P86926); experiment: biochemical; format: biochemical
T1 construct: made in house; host or cells: Escherichia coli BL21 (DE3), polycistronic pET-21d construct
Experimental: Substrate RNAs were annealed in the presence of 25 mM KCl, 12.5 mM Tris–HCl pH 8.0, 5 mM Mg(OAc)2 and 0.25 mM DTT at a concentration of 1 μM in 10-ml batches by incubation at 70°C for 10 min, followed by slow cooling to room temperature. Annealed substrate was stored at −80°C. For 2400 assays, 2.4 μl 100 mM ATP were added to 12 ml pre-annealed substrate and 5 μl of the mixture dispensed into each well of a 384-well assay plate (Greiner 788075). A total of 50 nl of LOPAC (Sigma-Aldrich; 2 mM in DMSO) or Maybridge Hitfinder (Thermo Fisher Scientific; 2 mM in DMSO) compounds were added per well using a Biomek FX instrument. Recombinant REL1 was diluted in 10% (v/v) glycerol, 300 mM NaCl, 2 mM DTT and 20 mM Tris–HCl pH 6.0 to a final concentration of 300 ng/μl. One hundred twenty microliter REL1 solution were added to 11.88 ml ligation buffer (5 mM KCl; 12.5 mM Tris–HCl pH 6.0; 1 mM Mg(OAc)2; 0.25 mM DTT, 0.2% (w/v) Triton X-100; 0.003% (w/v) Brij 35) and 5 μl of the REL1/ligation buffer mix were added to each well to start the reaction ([…] REL1 per well). A total of 50 μM NSC-42067 served as positive control for inhibition ([34]). As additional controls, each plate included reactions without inhibitor and reactions without REL1. After 30 min incubation at room temperature the reaction was stopped by adding 12.5 μl STOP solution (9 M urea; 20 mM EDTA). After a minimum incubation period of 15 min plates were read using a ratiometric wavelength read (excitation at 485 nm, detection at 665 and 535 nm). HTS was carried out at The Scripps Research Institute, San Diego, CA, USA.
To validate the suitability of the FRET-based REL1 activity assay for HTS, the assay conditions were adapted to 384-well format to facilitate a pilot screen. An ATP concentration of 10 μM was chosen as a compromise between sensitivity to inhibition and robust S:B ratio.
Figure 5. […] Data were plotted as% inhibition compared to controls without inhibitor and fitted to a sigmoidal curve. […] All experiments were carried out under optimized conditions, and means and standard deviations for three replicates are shown.

[2] = biological target: T1, Trypanosoma brucei REL1; experiment: Non-denaturing PAGE of RNA ligation reaction by REL1; format: biochemical; settings: increasing concentrations of compound, optimized conditions, Figure S4
Experimental: After ligation reaction, 20% (w/v) polyacrylamide gels were used to separate the RNA molecules by non-denaturing PAGE in Tris-borate-EDTA (TBE) buffer. For denaturing PAGE, gels contained 7 M urea. Gels were analyzed using a Typhoon FLA 7000 (GE Healthcare).
Figure S4. Non-denaturing PAGE showing inhibition of RNA ligation reaction by compound NSC42067. Lanes 1, 2 and 3 were loaded with the 16-nt 6-FAM 5’-RNA substrate, the 13-nt Cy5 3’- RNA substrate and a 29-nt dual 6-FAM/Cy5-labelled DNA oligo, respectively. Lane 4 was left empty.
Lanes 5 to 8 show products from standard reaction conditions and controls. Lanes 9 to 11 show the effects of increasing concentrations of NSC42067 in the assay. Ligation reactions were carried out under optimized conditions. The gel analysis confirmed the following:
Lanes 1 - 3: See Supplementary Figure S1.
Lanes 5 to 7: As before (compare Supplementary Figure S1), incubation of 5’- and 3’-RNAs with […]
The intensity of both bands increased with longer incubation time (compare lane 6 = 5 min with lane 7 = 30 min) and was dependent on the presence of REL1 (lane 5).
Figure S5. Structures of the hit compounds selected for validation.
Figure S6. Scatter plot showing the results of the second pilot screen. Compounds of the Maybridge library were incubated at 10 µM concentration in 384-well plates with REL1 (7.8 nM) in the presence […]
Stop buffer was added after 30 min. […]

[3] = system: T. brucei gambiense; set-up: method as in PMID 14982785; settings: in vitro; cited from earlier work
[4] = system: human hemopoietic cells; settings: cited from earlier work
[5] = single-shot HTS, 10 μM final compound concentration, 10 μM ATP, as suggested by HTS
[6] = dose-response curves, HTS/optimized assay conditions, 10 μM ATP, influenced by unknown percentage of active protein
[7] = dose-response curves, HTS/optimized assay conditions, 10 μM ATP, influenced by unknown percentage of active protein, read-out: IC50

T1 sequence (P86926 51-469): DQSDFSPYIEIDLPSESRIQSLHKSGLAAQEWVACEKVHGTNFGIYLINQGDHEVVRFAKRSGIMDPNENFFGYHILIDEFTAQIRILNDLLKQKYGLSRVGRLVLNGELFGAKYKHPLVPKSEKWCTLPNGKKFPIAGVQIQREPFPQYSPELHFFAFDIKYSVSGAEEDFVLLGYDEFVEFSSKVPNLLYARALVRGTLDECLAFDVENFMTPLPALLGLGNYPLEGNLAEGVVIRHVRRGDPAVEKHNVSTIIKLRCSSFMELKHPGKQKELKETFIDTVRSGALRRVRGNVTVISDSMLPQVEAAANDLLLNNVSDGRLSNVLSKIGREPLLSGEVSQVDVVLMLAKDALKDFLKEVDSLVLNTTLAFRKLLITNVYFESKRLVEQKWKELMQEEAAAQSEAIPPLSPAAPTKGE

CSc1nc(N)c2ncn([C@@H]3O[C@H](COP(=O)(O)OP(=O)(O)O)[C@@H](O)[C@H]3O)c2n1 [2-(Methylthio)adenosine 5′-diphosphate trisodium salt hydrate]
Inhibition at 10 μM ([1]; read-out: Inhibition at 10 μM): 22%

Nc1nc(Cl)nc2c1ncn2[C@@H]1O[C@H](COP(=O)(O)OP(=O)(O)OP(=O)(O)O)[C@@H](O)[C@H]1O [2-Chloroadenosine triphosphate tetrasodium hydrate]
Inhibition at 10 μM ([1]; read-out: Inhibition at 10 μM): 18%

Cn1c(=O)c2[nH]c(-c3ccc(S(=O)(=O)O)cc3)nc2n(C)c1=O [8-(p-Sulfophenyl)theophylline hydrate]
Inhibition at 10 μM ([1]; read-out: Inhibition at 10 μM): 23%

CC(=O)OC[C@H]1O[C@@H]([S-])[C@H](OC(C)=O)[C@@H](OC(C)=O)[C@@H]1OC(C)=O.CCP(CC)CC.[Au+] [Auranofin]
Inhibition at 10 μM [1, 5]: 24%

OC[C@H]1O[C@H]([S-])[C@H](O)[C@@H](O)[C@@H]1O.[Au+] [Aurothioglucose hydrate]
IC50 (μM) [1, 6]: low μM range | IC50 [1, 7]: 12100 nM | Inhibition at 10 μM [1, 5]: 93%

NC(=O)c1cc[n+](CC2=C(C(=O)[O-])N3C(=O)[C@@H](NC(=O)[C@@H](c4ccccc4)S(=O)(=O)[O-])[C@H]3SC2)cc1.[Na+] [Cefsulodin sodium salt hydrate]
Inhibition at 10 μM [1, 5]: 46%

CC(=O)OCC1=C(C(=O)[O-])N2C(=O)[C@@H](NC(=O)CCC[C@@H](N)C(=O)[O-])[C@H]2SC1.[Zn+2] [Cephalosporin C zinc salt]
Inhibition at 10 μM [1, 5]: 21%

CC(C)NC(C)Cc1ccc(I)cc1 (stereo not shown) [Iofetamine hydrochloride]
Inhibition at 10 μM ([1]; read-out: Inhibition at 10 μM): 70%

NC(N)=NOCC[C@H](N)C(=O)O [L-Canavanine]
Inhibition at 10 μM ([1]; read-out: Inhibition at 10 μM): 46%

O=C(O)/C(=C/c1c(C(=O)O)[nH]c2cc(Cl)cc(Cl)c12)c1ccccc1 [MDL 105,519]
Inhibition at 10 μM [1, 5]: 18%

O=[N+]([O-])/C=C/c1ccc2c(c1)OCO2 [MNS]
Inhibition at 10 μM [1, 5]: 22%

CN(N=O)c1ccc(O)c(O)c1 [Methyl-3,4-dephostatin]
IC50 [1, 7]: > 50000 nM | Inhibition at 10 μM [1, 5]: 97% | Inhibition in dose-response curve ([1]; up to 50 μM concentration): no significant inhibition

O.O=c1c(O)c(-c2ccc(O)cc2O)oc2cc(O)cc(O)c12 [Morin hydrate]
Inhibition at 10 μM [1, 5]: 17%

O=c1c(O)c(-c2cc(O)c(O)c(O)c2)oc2cc(O)cc(O)c12 [Myricetin]
IC50 [1]: 1780 nM | IC50 (μM) [1, 6]: low μM range | Inhibition at 10 μM ([1]; read-out: Inhibition at 10 μM): 100%

O=C(Nc1cccc(C(=O)Nc2ccc(S(=O)(=O)[O-])c3cc(S(=O)(=O)[O-])cc(S(=O)(=O)[O-])c23)c1)Nc1cccc(C(=O)Nc2ccc(S(=O)(=O)[O-])c3cc(S(=O)(=O)[O-])cc(S(=O)(=O)[O-])c23)c1.[Na+].[Na+].[Na+].[Na+].[Na+].[Na+] [NF 023 hydrate]
IC50 (μM) [1, 6]: low μM range | IC50 [1, 7]: 1950 nM | Inhibition at 10 μM [1, 5]: 79%

O=C(O)c1cc(O)c(O)c(OC(=O)c2cc(O)c(O)c(O)c2CNc2ccc3cc(S(=O)(=O)O)cc(S(=O)(=O)O)c3c2)c1 [NSC42067]
IC50 [1, 7]: 1400 nM | Effect on formation of the ligation product (gel) [2]: inhibit formation of the ligation product

C#CCN[C@H](C)Cc1ccccc1.Cl [R-(–)-Desmethyldeprenyl hydrochloride]
Inhibition at 10 μM [1, 5]: 38%

Cc1ccc(C(=O)Nc2ccc(S(=O)(=O)O)c3cc(S(=O)(=O)O)cc(S(=O)(=O)O)c23)cc1NC(=O)c1cccc(NC(=O)Nc2cccc(C(=O)Nc3cc(C(=O)Nc4ccc(S(=O)(=O)O)c5cc(S(=O)(=O)O)cc(S(=O)(=O)O)c45)ccc3C)c2)c1 [Suramin sodium salt]
IC50 [1]: 2940 nM | IC50 (μM) [1, 6]: low μM range | Inhibition at 10 μM ([1]; read-out: Inhibition at 10 μM): 66%

N#C/C(=C\c1ccc(O)c(O)c1)C(=O)NCCCNC(=O)/C(C#N)=C/c1ccc(O)c(O)c1 [Tyrphostin AG 537]
IC50 (μM) [1, 6]: low μM range | IC50 [1, 7]: 250 nM | Inhibition at 10 μM [1, 5]: 93%

CC(C)N(CCC(=O)c1ccc2ccccc2c1)Cc1ccccc1.Cl [ZM 39923 hydrochloride]
Inhibition at 10 μM [1, 5]: 26%

N.N.[Cl][Pt][Cl] [cis-Diammineplatinum(II) dichloride]
Inhibition at 10 μM [1, 5]: 14%

O=c1c(O)c(-c2ccc(O)c(O)c2)oc2cc(O)cc(O)c12 [quercertin]
LD50 [3]: 10 µM | Effect on human hemopoietic cells [4]: without affecting human hemopoietic cells

CC1(C)CCC2=C(O1)c1ccccc1C(=O)C2=O [β-Lapachone]
Inhibition at 10 μM ([1]; read-out: Inhibition at 10 μM): 48%
